Reference: patent US20230044787A1, “TRICYCLE DIHYDROIMIDAZOPYRIMIDONE DERIVATIVE, PREPARATION METHOD THEREOF, PHARMACEUTICAL COMPOSITION AND USE THEREOF” (priority 2019, published 2023)

What follows are compounds tested against T1, Lp-PLA2 (Homo sapiens, UniProt Q13093) (assay: Lipoprotein-associated phospholipase A2 (Lp-PLA2) human plasma assay (Thio-PAF assay)). Settings: Lp-PLA2 human plasma assay (Thio-PAF), pooled human plasma, 30-min pre-incubation at room temperature.
T1 construct: aliquoted and thawed 40 μL of pooled human plasma was previously added; from tissue; host or cells: pooled human plasma
T1 sequence (Q13093 22-441): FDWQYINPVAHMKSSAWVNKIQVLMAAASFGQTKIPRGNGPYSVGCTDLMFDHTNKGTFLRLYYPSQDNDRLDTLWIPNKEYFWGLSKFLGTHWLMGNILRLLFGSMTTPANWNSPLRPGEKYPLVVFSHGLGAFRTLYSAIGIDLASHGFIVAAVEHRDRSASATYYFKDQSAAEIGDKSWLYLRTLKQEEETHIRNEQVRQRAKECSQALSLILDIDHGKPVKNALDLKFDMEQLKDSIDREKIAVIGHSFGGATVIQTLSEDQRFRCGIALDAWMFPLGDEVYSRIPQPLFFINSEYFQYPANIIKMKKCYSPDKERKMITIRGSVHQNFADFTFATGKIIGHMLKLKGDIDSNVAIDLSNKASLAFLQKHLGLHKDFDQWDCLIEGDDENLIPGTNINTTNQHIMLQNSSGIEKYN
Type: biochemical

| IC50 [nM] | SMILES |
| --- | --- |
| 12.1 | CCC12CCCN1c1cc(OCc3ccc(Oc4cc(C#N)cc(C(F)(F)F)c4)c(F)c3)nc(=O)n1C2 (stereo not drawn) [Example 65] |
| 13 | CC12CCCN1c1cc(OCc3ccc(F)c(F)c3)nc(=O)n1C2 (stereo not drawn) [Example 62, 3-((3,4-difluorobenzyl)oxy)-8a-methyl-7,8,8a,9-tetrahydro-1H,6H-pyrrolo[1′,2′:3,4]imidazo [1,2-c]pyrimidin-1-one] |
| 1.5 | O=c1nc(OCc2ccc(Oc3ccnc(C(F)(F)F)c3)c(F)c2)c(C(F)(F)F)c2n1C[C@]13CO[C@H](CN21)C3 [Example 164, (3S,11aR)-7-((3-fluoro-4-((2-(trifluoromethyl)pyridin-4-yl)oxy)benzyl)oxy)-6-(trifluoromethyl)-3,4-dihydro-1H,9H,11H-3,11a-methanopyrimido[6′,1′:2,3] imidazo[5,1-c][1,4]oxazin-9-one] |
| 3.4 | O=c1nc(OCc2cc(F)c(Oc3cncc(C(F)(F)F)c3)c(F)c2)cc2n1C[C@@]13CO[C@@H](CN21)C3 [Example 29, (3R,11aS)-7-((3,5-difluoro-4-((5-(trifluoromethyl)pyridin-3-yl)oxy)benzyl)oxy)-3,4-dihydro-1H,9H,11H-3,11a-methanopyrimido[6′,1′:2,3] imidazo[5,1-c][1,4]oxazin-9-one] |
| 6.4 | O=c1nc(OCc2cc(F)c(Oc3cncc(C(F)(F)F)c3)c(F)c2)cc2n1CC13CC(CN21)C3 [Example 40] |
| 2.6 | O=c1nc(OCc2ccc(Oc3ccc(Cl)c(C(F)(F)F)c3)c(F)c2)cc2n1CC13CCC(CC1)N23 [Example 127, 3-((3-fluoro-4-(4-chloro-3-(trifluoromethyl)phenoxy)benzyl)oxy)-7,8-dihydro-1H,6H,9H-6,8a-ethanopyrrolo[1′,2′:3,4] imidazo[1,2-c]pyrimidin-1-one] |
| 4.2 | O=c1nc(OCc2cc(F)c(Oc3ccnc(OC(F)(F)F)c3)c(F)c2)cc2n1C[C@]13CO[C@H](CN21)C3 [Example 5, (3S,11aR)-7-((3,5-difluoro-4-((2-(trifluoromethoxy)pyridin-4-yl)oxy)benzyl)oxy)-3,4-dihydro-1H,9H,11H-3,11a-methanopyrimido[6′,1′:2,3] imidazo[5,1-c][1,4]oxazin-9-one] |
| 9.4 | O=c1nc(OCc2cc(F)c(Oc3cnc(C(F)(F)F)nc3)c(F)c2)cc2n1CC13CCC(CC1)N23 [Example 47, 3-((3,5-difluoro-4-((2-(trifluoromethyl)pyrimidin-5-yl)oxy)benzyl)oxy)-7,8-dihydro-1H,6H,9H-6,8a-ethanopyrrolo[1′,2′:3,4] imidazo[1,2-c]pyrimidin-1-one] |
| 4.9 | O=c1nc(OCc2cc(F)c(Oc3ccnc(Cl)c3)c(F)c2)cc2n1C[C@]13CO[C@H](CN21)C3 [Example 6, (3S,11aR)-7-((4-((2-chloropyridin-4-yl)oxy)-3,5-difluorobenzyl)oxy)-3,4-dihydro-1H,9H,11H-3,11a-methanopyrimido[6′,1′:2,3] imidazo[5,1-c][1,4]oxazin-9-one] |
| 9.5 | CC(C)c1c(OCc2cc(F)c(Oc3ccnc(C(F)(F)F)c3)c(F)c2)nc(=O)n2c1N1C[C@@H]3C[C@]1(CO3)C2 [Example 107, (3S,11aR)-7-((3,5-difluoro-4-((2-(trifluoromethyl)pyridin-4-yl)oxy)benzyl)oxy)-6-isopropyl-3,4-dihydro-1H,9H,11H-3,11a-methanopyrimido[6′,1′:2,3] imidazo[5,1-c][1,4]oxazin-9-one] |
| 13.2 | O=c1nc(OCc2cc(F)c(F)c(F)c2)cc2n1C[C@]13CO[C@H](CN21)C3 [Example 24, (3S,11aR)-7-((3,4,5-trifluorobenzyl)oxy)-3,4-dihydro-1H,9H,11H-3,11a-methanopyrimido[6′,1′:2,3] imidazo[5,1-c][1,4]oxazin-9-one] |
| 5.2 | O=c1nc(OCc2cc(F)c(Oc3ccnc(C(F)(F)F)c3)c(F)c2)c(F)c2n1C[C@]13CO[C@H](CN21)C3 [Example 88, (3S,11aR)-7-((3,5-difluoro-4-((2-(trifluoromethyl)pyridin-4-yl)oxy)benzyl)oxy)-6-fluoro-3,4-dihydro-1H,9H,11H-3,11a-methanopyrimido[6′,1′:2,3] imidazo[5,1-c][1,4]oxazin-9-one] |
